Legend:
[1] = molecular target: T1, Serine/threonine-protein kinase Nek2 (Homo sapiens) (UniProt P51955); experiment: Selectivity interaction (KinomeScan (DiscoverX)) EUB0000229b NEK2; conditions: at 10 µM
T1 sequence (whole entry): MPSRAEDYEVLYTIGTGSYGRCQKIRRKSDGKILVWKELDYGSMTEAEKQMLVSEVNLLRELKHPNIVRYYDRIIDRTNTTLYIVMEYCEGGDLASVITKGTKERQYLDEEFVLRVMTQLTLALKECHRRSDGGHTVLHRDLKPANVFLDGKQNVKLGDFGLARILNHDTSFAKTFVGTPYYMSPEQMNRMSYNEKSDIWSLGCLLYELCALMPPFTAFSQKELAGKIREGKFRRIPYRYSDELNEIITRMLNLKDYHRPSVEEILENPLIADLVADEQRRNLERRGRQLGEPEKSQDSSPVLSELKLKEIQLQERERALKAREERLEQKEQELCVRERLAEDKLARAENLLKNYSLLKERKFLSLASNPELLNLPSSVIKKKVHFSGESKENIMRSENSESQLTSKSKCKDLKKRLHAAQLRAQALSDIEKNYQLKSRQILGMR

[2] = molecular target: T2, Serine/threonine-protein kinase ICK (Homo sapiens) (UniProt Q9UPZ9); experiment: Selectivity interaction (LanthaScreen Eu Kinase Binding Assay) EUB0001632a ICK; conditions: at 10 µM
T2 sequence (whole entry): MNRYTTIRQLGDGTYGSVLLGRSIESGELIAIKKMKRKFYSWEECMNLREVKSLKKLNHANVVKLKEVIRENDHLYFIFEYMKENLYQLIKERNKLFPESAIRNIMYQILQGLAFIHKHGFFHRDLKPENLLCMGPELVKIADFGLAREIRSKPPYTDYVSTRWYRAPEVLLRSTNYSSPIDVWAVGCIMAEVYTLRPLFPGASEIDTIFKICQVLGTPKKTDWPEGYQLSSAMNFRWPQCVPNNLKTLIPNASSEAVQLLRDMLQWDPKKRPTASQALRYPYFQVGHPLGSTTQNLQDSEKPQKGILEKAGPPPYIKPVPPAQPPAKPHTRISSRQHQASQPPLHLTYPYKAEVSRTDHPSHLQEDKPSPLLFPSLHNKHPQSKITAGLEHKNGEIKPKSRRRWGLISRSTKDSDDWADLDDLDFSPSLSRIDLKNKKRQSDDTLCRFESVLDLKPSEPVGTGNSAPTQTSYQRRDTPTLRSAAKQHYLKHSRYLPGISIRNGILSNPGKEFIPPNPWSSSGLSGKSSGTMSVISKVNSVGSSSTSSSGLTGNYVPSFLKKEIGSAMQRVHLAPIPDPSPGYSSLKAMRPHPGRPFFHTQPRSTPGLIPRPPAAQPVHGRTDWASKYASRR

[3] = test system: Receptor-type tyrosine-protein kinase FLT3 (Homo sapiens), P36888 [UNDEFINED MUTATION]; experiment: Selectivity interaction (LanthaScreen Eu Kinase Binding Assay) EUB0001632a FLT3; conditions: at 10 µM
Receptor-type tyrosine-protein kinase FLT3 (Homo sapiens), P36888 [UNDEFINED MUTATION], sequence (P36888 whole entry, looked up, change not shown): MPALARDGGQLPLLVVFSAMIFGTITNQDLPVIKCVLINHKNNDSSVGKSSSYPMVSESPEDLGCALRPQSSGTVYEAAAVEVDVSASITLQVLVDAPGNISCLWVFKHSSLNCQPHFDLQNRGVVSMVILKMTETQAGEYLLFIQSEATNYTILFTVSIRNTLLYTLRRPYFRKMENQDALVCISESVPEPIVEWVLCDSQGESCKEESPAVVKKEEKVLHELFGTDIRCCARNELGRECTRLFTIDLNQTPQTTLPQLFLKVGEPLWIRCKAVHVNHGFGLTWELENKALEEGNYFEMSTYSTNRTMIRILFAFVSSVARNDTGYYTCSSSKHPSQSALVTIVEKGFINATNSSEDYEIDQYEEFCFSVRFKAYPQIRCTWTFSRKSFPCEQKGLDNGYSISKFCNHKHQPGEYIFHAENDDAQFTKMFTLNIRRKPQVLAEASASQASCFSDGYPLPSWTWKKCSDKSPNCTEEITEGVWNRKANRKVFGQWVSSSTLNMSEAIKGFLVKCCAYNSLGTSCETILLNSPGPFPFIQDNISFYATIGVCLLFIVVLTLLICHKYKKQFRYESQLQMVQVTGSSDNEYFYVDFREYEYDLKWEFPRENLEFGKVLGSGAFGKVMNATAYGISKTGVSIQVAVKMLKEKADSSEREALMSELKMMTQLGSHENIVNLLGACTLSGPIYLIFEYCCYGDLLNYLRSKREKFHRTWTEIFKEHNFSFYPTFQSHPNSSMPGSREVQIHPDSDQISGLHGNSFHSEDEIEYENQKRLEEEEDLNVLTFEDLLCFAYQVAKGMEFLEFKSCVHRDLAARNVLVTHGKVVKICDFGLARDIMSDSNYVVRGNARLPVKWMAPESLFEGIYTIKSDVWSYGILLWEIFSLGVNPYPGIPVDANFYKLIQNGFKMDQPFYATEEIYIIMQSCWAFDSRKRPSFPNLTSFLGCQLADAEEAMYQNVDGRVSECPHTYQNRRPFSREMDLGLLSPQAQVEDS

[4] = molecular target: Serine/threonine-protein kinase PLK1 (Homo sapiens, UniProt P53350); experiment: Selectivity interaction (Kinase panel (Z-LYTE Assay)) EUB0001632a PLK1; conditions: at 10 µM
Serine/threonine-protein kinase PLK1, sequence (P53350 whole entry): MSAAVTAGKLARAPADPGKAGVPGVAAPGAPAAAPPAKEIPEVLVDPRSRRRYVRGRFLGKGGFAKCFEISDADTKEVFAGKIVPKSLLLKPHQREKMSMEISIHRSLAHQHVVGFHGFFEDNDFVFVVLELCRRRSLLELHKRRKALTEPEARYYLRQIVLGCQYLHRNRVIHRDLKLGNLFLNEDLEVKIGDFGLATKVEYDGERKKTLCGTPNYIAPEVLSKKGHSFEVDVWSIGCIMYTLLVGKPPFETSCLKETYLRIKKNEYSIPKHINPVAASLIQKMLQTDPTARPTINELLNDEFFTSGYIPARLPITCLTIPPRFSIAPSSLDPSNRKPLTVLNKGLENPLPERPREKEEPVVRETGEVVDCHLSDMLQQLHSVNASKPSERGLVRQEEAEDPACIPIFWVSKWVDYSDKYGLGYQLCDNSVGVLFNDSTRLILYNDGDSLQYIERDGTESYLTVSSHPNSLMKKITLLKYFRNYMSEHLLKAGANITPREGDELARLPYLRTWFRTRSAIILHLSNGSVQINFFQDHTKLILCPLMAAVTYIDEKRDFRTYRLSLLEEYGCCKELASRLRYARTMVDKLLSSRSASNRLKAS

[5] = molecular target: T3, Serine/threonine-protein kinase ULK1 (Homo sapiens) (UniProt O75385); experiment: Selectivity interaction (Kinase panel (DSF assay)) EUB0001558a ULK1
T3 sequence (whole entry): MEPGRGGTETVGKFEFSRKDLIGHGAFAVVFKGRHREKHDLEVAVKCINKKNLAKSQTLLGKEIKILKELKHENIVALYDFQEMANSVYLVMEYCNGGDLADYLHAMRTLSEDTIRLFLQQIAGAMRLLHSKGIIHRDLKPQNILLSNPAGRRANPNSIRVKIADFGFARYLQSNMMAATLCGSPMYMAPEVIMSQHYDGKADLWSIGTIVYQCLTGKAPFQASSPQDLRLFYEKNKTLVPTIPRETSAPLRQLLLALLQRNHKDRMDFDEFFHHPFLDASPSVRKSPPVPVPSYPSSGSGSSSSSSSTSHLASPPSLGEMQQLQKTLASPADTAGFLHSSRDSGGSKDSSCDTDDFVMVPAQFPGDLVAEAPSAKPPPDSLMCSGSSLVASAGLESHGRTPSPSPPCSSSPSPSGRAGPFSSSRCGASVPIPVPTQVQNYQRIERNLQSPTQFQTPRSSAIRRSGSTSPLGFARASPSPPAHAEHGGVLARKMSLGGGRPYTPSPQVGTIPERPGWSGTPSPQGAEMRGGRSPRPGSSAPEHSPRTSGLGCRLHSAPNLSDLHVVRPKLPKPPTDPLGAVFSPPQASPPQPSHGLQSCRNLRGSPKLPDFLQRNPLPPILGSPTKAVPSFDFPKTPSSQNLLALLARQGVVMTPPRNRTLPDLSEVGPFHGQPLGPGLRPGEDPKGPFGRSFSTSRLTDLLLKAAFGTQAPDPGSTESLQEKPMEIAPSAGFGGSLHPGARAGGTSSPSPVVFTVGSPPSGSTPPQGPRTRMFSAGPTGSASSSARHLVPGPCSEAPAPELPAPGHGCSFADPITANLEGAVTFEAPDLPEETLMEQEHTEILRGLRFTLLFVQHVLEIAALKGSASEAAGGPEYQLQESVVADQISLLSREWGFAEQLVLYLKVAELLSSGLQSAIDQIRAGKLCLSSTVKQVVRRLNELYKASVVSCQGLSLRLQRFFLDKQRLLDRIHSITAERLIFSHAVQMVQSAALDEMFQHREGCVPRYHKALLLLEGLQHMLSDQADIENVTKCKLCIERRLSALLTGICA

COc1cc(N(C)c2ccnc3ccc(C(F)(F)F)cc23)cc(OC)c1OC
% binding [1]: 92%

Cn1cc(-n2cnc3c(NCc4nc5cc(Cl)c(Cl)cc5[nH]4)nc(N4CCOCC4)nc32)cn1
% of inhibition [2]: -3.44% | % of inhibition [3]: -1.89% | % of control [4]: 1.25%

CC(C)(O)[C@H](F)CN1Cc2cc(NC(=O)c3cnn4cccnc34)c(N3CCOCC3)cc2C1=O
dTM [5]: 0.5 K

— ChEMBL document CHEMBL5465560, “Selectivity Literature for EUbOPEN Chemogenomic Library” (2024)
